In one experiment the target is streptavidin (Streptomyces avidinii, UniProt P22629). The following applies: literature reference value, Piran et al. 1990; cited from earlier work.
Experiment [1] deals with T1, Bcl-xL (Homo sapiens, UniProt Q07817).
T1 construct: The gene for the first 209 amino acids of Bcl-xL; made in house; host or cells: E. coli BL21(DE3), pET24a vector
Nature of the experiment: Equilibrium immunoassays (ELISA and AMMP data combined), Kd of ligands for Bcl-xL. The class given is binding. The protocol: Sample Preparation. A set of serially diluted Bcl-xL standards, at 2× the desired concentration, were made in sample buffer. For each ligand to be tested (such as peptide ligands), a set of dilutions at 2× the desired concentration was also prepared. The Bcl-xL samples were either mixed 1:1 with sample buffer (standards) or ligands (samples), and allowed to incubate at room temperature for 6 days. After the incubation, the standards and samples were analyzed using ELISA or the ViBE BioAnalyzer (FIG. 1).
ELISA Assays. ELISA plates were incubated overnight at 4° C. with 1.5 nmol of streptavidin (for D1 or Bcl-xL capture ligands) or 54H6 mAb in 1×PBS. Plates were washed 3× with wash buffer (1×PBS+0.1% (v/v) Tween-20) and blocked with 1×PBS+5% (w/v) BSA for two hours. For the D1 or Bcl-xL capture ligands, 100 μL of a 30 nM solution of the reagents was added to wells and incubated for 1 hour. This step was skipped for the 54H6 mAb capture ligand (already immobilized on the plate). After the capture ligand incubation, 100 μL of sample or standards were added in each well, and incubated for 1 hour at room temperature. Plates were washed, incubated with HRP-conjugated probe antibody (such as anti-HIS tag antibody) in sample buffer for 1 hour, washed, and incubated with TMB substrate (Thermo Scientific). Reactions were stopped after approximately 10 minutes with 2 M sulfuric acid, and the absorbance at 450 nm was measured via a plate reader (Molecular Devices). The ligand of interest, capture ligand, target protein, and probe ligand used in example ELISA assays performed are highlighted in the table below.
AMMP Assays. For the AMMP assays, 90 μL of each sample or standards was incubated with 30 μL of magnetic beads (12 μg of beads/mL) and fluorescein-labeled antibody (8 nM) in sample buffer for 1 hour. The experiment's run buffer was 1×PBS+1% (v/v) Tween-20+1% (v/v) heat-treated FBS (Invitrogen; FBS was heat treated for 15 minutes at 65° C. and filtered). BioScale Universal Detection Cartridges were used in performing all of the assays. The device was used per the manufacturer's instructions. The ligand of interest, capture ligand, target protein, and probe ligand used in example AMMP assays performed are highlighted in the table below.
Monovalent and Divalent Analysis. The data for both sets of target concentrations were simultaneously fit for Kd (in the Kd only fit) or Kd and Mo. The data was fitted to the equilibrium model using the lowest absolute deviation method, by varying either only Kd or both Kd and [L]0 simultaneously. The monovalent assay fitting was done by Excel Solver (GRG Non-Lin method) using a set of five initial values. The set of values which provided the lowest error after the fitting were chosen as the final values. For the divalent assays, the fitting was performed by MATLAB's fminsearch function and a set of 10 initial values for Kd1, Kd2, and [L]0. […] For the divalent reverse assay, an extra parameter, Cf, was also determined by fitting (FIG. 7 Reverse Assay).
Enzymatic Kd Calculation Assay. The Kd values of ligands of interest were determined using a protocol modified from Friguet et al., Journal of immunological methods, 77, 305-319 (1985). The samples were prepared and analyzed by ELISA assay in a similar process as described above. The OD450 for the standards and their concentration values were fit to a four parameter logistic curve (standard curve). The concentration of the free Bcl-xL in solution (responsible for the signal) for each sample was calculated using the standard curve, and converted into percent of Bcl-xL bound by ligand in solution.
On the technique in general: ELISA stands for enzyme-linked immunosorbent assay.

Experiment [2] has as its target T1, Bcl-xL. The experiment is described as follows: Radiolabeled off-rate assay on immobilized Bcl-xL. The class given is binding. From the text: Radiolabeled Off-Rate Assay. The DNA sequences coding for the peptides were ordered from Integrated DNA Technologies (IDT). Each DNA construct contained a T7 RNA Polymerase promoter, and a 5′ deletion mutant of the Tobacco Mosaic Virus (ΔTMV). The C-terminal portion of the peptides were elongated with a flexible serine-glycine linker (six amino acids long) and an HA tag. After gel purification using urea-PAGE, the DNA sequences were PCR amplified using Taq polymerase and in vitro transcribed into mRNA using T7 RNA polymerase. After transcription, the mRNA was urea-PAGE purified and resuspended in deionized water to a final concentration of 30 μM.
The samples were in vitro translated at 30° C. for 1 hour in the translation solution—150 mM KOAc, 750 μM MgCl2, 2 μM mRNA, 1× translation mix (20 mM Hepes-KOH pH 7.6, 100 mM creatine phosphate, 2 mM DTT, and 312.5 μM of each amino acid excluding methionine), ^35S-labeled methionine (Perkin Elmer; 20 μCi for each 25 μL of translation), and 60% (v/v) rabbit reticulocyte lysate. Radiolabeled peptides were purified using magnetic HA beads (Life Technologies) and eluted with 100 μL, 50 mM NaOH, then immediately neutralized with 20 μL of 1 M Tris-HCl, pH 8.0.
The radiolabeled peptides were allowed to bind to 30 pmol immobilized Bcl-xL for 1 hour in sample buffer (1×PBS, 1% (w/v) BSA, 0.1% (v/v) Tween 20, 10 μM biotin). The beads were magnetically separated, and washed 5× with sample buffer. The beads were resuspended in 1 mL of sample buffer containing 3 μM non-biotinylated Bcl-xL (˜100× molar excess relative to immobilized biotinylated Bcl-xL). At various time points, 100 μL of slurry was removed and the beads were magnetically separated and washed. The percent remaining at each time point was determined by dividing the counts per minute (cpm) on beads by total cpm (beads+washes). The peptide off-rate was determined by an exponential fit of the Percent counts on beads vs. Time (s).
The peptide ligands were made using a C-terminal HA tag, and affinity purified.

Experiment [3] deals with T1, Bcl-xL. The experiment is described as follows: High-throughput sequencing kinetic (HTSK) on- and off-rates of mRNA-peptide fusions. The format is binding. On the procedure:
Preparing the pools of fusion ligands. The DNAs for the final enriched pools from the extension and the doped selection against Bcl-xL were generated. The DNA pools were PCR amplified using Taq polymerase and in vitro transcribed into mRNA using T7 RNA polymerase (Liu et al., Methods Enzymol. 318, 268-293 (2000)). After transcription, the mRNA was urea-PAGE purified and resuspended in deionized water to a final concentration of 30 μM. The mRNA was then ligated to fluorescein-F30P (phosphate-dA21-[dT-fluor]-[C9]3-dAdCdCP; where [dT-fluor] is fluorescein dT (Glen Research), [C9] is spacer 9 (Glen Research), and P is puromycin (Glen Research); synthesized at the Keck Oligo Facility at Yale) using T4 DNA ligase (Takahashi et al., Methods Mol. Biol. 535, 293-314 (2009)). The ligation was performed using a splint complementary to the 3′ end of the RNA and the 5′ end of the DNA-linker. The ligated mRNA was urea-PAGE purified and resuspended in deionized water to final concentration of 30 μM. The samples were in vitro translated in the translation solution-150 mM KOAc, 750 μM MgCl2, 2 μM mRNA, in 1× translation mix (20 mM Hepes-KOH pH 7.6, 100 mM creatine phosphate, 2 mM DTT, and 312.5 μM of each amino acid) and 60% (v/v) rabbit reticulocyte lysate. To prepare radiolabeled peptides or proteins, non-labeled methionine was substituted with ^35S-labeled methionine (Perkin Elmer; 20 μCi for each 25 μL of translation). The translation reactions were incubated at 30° C. for one hour. To form mRNA-protein fusions, KCl and MgCl2 were added to the reaction to final concentrations of 250 mM and 30 mM respectively after translation, and the samples were frozen at −20° C.
To purify the fusion molecules, 100 μL of dT cellulose (25% (v/v) slurry, GE Healthcare) in isolation buffer (100 mM Tris-HCl pH 8.0, 1 M NaCl, 0.2% (v/v) Triton X-100) was added and incubated for 1 hour. The beads were washed five times with 700 μL of isolation buffer, and the fusions were eluted with 3×80 μL of 65° C. water and desalted through Centrisep columns (Princeton Separations). The desalted fusions were adjusted to 1×RT buffer (50 mM Tris-HCl pH 8.3, 75 mM KCl, 3 mM MgCl2, […], […],) and the sample was heated to 65° C. for 5 minutes and cooled on ice to anneal the 3′ primer. After cooling, […] of Superscript II enzyme was added and the reaction incubated at 42° C. for one hour. […]
On- and off-rate experiments. […] The radiolabeled samples were washed 3×, and the beads were counted via a scintillation counter.
To obtain the HTSK off-rates, after the kinetic on-rate experiment, the remaining beads were washed 5× with selection buffer. […] The radiolabeled samples were washed and counted via a scintillation counter. […]

Peptide text beside a SMILES is read from it. * marks the point of attachment. Biotin = O=C1N[C@H]2[C@H](CS[C@H]2CCCCC(=O)*)N1

T1 sequence (Q07817 1-209 limits assumed): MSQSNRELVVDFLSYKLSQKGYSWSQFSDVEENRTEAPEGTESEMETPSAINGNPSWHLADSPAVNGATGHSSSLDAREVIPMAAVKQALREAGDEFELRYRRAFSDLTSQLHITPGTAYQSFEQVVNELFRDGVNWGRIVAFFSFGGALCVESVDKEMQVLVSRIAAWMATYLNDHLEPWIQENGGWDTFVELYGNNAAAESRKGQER
Sequence of streptavidin (P22629 25-183, species assumed): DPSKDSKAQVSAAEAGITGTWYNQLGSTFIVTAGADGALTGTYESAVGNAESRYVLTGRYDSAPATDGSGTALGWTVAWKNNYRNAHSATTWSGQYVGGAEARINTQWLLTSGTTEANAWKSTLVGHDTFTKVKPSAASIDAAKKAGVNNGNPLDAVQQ

As to `O=C(O)CCCC[C@@H]1SC[C@@H]2NC(=O)N[C@@H]21` [biotin], the “slowest reported off-rate of biotin and streptavidin” value at streptavidin is on record as 2.4×10^−6.

Take `CC[C@H](C)[C@H](NC(=O)[C@@H](NC(=O)[C@@H](NC(=O)[C@@H](NC(=O)[C@H](CCC(=O)O)NC(=O)[C@@H](NC(=O)[C@@H](N)CCSC)[C@@H](C)CC)[C@@H](C)O)[C@@H](C)CC)[C@@H](C)O)C(=O)N[C@@H](Cc1ccc(O)cc1)C(=O)N[C@@H](CCCCN)C(=O)N[C@@H](Cc1ccc(O)cc1)C(=O)N[C@@H](CCCCN)C(=O)N[C@@H](CCCCN)C(=O)N[C@@H](C)C(=O)N[C@@H](C)C(=O)N[C@@H](CC(=O)O)C(=O)N[C@@H](Cc1c[nH]cn1)C(=O)N[C@@H](Cc1ccccc1)C(=O)N[C@@H](CO)C(=O)N[C@@H](CCSC)C(=O)N[C@@H](CO)C(=O)N[C@@H](CCSC)C(=O)NCC(=O)N[C@@H](CO)C(=O)N[C@@H](CCCCNC(=O)CCCC[C@@H]1SC[C@@H]2NC(=O)N[C@@H]21)C(N)=O` [E2] (H-MIETITIYKYKKAADHFSMSMGSK(Biotin)-NH2): the kon at Bcl-xL [1] was 53000 M⁻¹ s⁻¹. Also, the Kd on Bcl-xL [1] (Kd, equilibrium ELISA/AMMP assays (Table 1 values)) was found to be 0.3 nM. The “Ratio of Fit [L]0 to Known [L]0” value on Bcl-xL [1] (simultaneous fit of Kd and [L]0, mean ± standard error) is on record as 96% ± 40%. The dissociation rate constant (koff) on Bcl-xL [2] (radiolabeled peptide-mRNA fusions bound to immobilized Bcl-xL, read-out: koff) was determined as 1.6e-05 s⁻¹.

With MIDTNVILNYKKAADHFSITMGSK [D79], the Peptide koff at Bcl-xL [2] (in vitro translated radiolabeled peptides with C-terminal HA tag) worked out at 5.9e-07 s⁻¹. For the same molecule, the koff value on Bcl-xL [2] (radiolabeled peptide, unit not given) is on record as 5.9×10^−7. At Bcl-xL [3] (from HTSK on- and off-rates), this molecule displayed a Kd of 0.0024 nM. The molecule further returned an HTSK koff on Bcl-xL [3] (mRNA-peptide fusions, next-generation sequencing) of 3.3e-07 s⁻¹.

The kon is the rate constant with which the complex forms. The term Kd denotes a measure of binding affinity in units of concentration. One may read the koff as the rate constant with which the complex falls apart.

Values taken from patent US20180172683A1, “METHODS FOR ANALYZING THE INTERACTION BETWEEN A TARGET PROTEIN AND A LIGAND” (UNIVERSITY OF SOUTHERN CALIFORNIA, priority 2015, published 2018).
